According to PMC12281475, “Mediator Kinase Inhibitor Selectivity and Activity in Colorectal Cancer” (ACS Chemical Biology, 2025):

Assays:
[1] = molecular target: T1, CDK8_CycC (Homo sapiens, UniProt P49336); experiment: Radiometric protein kinase assay (33PanQinase), CDK8_CycC; format: biochemical; conditions: for Hill Slope: slope of the IC50 fit
T1 construct: purchased Reaction Biology

[2] = molecular target: CDK18_CycY (Homo sapiens, UniProt Q07002); experiment: Radiometric protein kinase assay (33PanQinase), CDK18_CycY; format: biochemical; conditions: for IC50: highest assay concentration 1.00E-05 M; for Hill Slope: slope of the IC50 fit
[3] = molecular target: T2, CDK1_CycA2 (Homo sapiens, UniProt P06493); experiment: Radiometric protein kinase assay (33PanQinase), CDK1_CycA2; format: biochemical; conditions: for IC50: highest assay concentration 1.00E-05 M, read-out: IC50; for Hill Slope: slope of the IC50 fit
T2 construct: purchased Reaction Biology

[4] = molecular target: T3, CDK2_CycE1 (Homo sapiens, UniProt P24941); experiment: Radiometric protein kinase assay (33PanQinase), CDK2_CycE1; format: biochemical; conditions: for IC50: highest assay concentration 1.00E-05 M, read-out: IC50; for Hill Slope: slope of the IC50 fit
T3 construct: purchased Reaction Biology

[5] = molecular target: T4, CDK1_CycE1 (Homo sapiens, UniProt P06493); experiment: Radiometric protein kinase assay (33PanQinase), CDK1_CycE1; format: biochemical; conditions: for IC50: highest assay concentration 1.00E-05 M, read-out: IC50; for Hill Slope: slope of the IC50 fit
T4 construct: purchased Reaction Biology

[6] = molecular target: T5, CDK5_p35NCK (Homo sapiens, UniProt Q00535); experiment: Radiometric protein kinase assay (33PanQinase), CDK5_p35NCK; format: biochemical; conditions: for IC50: highest assay concentration 1.00E-05 M; for Hill Slope: slope of the IC50 fit
T5 construct: purchased Reaction Biology

[7] = molecular target: T6, CDK9_CycK (Homo sapiens, UniProt P50750); experiment: Radiometric protein kinase assay (33PanQinase), CDK9_CycK; format: biochemical; conditions: for IC50: highest assay concentration 1.00E-05 M; for Hill Slope: slope of the IC50 fit
T6 construct: purchased Reaction Biology

[8] = molecular target: CDK20_CycH (Homo sapiens, UniProt Q8IZL9); experiment: Radiometric protein kinase assay (33PanQinase), CDK20_CycH; format: biochemical; conditions: for IC50: highest assay concentration 1.00E-05 M; for Hill Slope: slope of the IC50 fit
[9] = molecular target: T7, CDK3_CycC (Homo sapiens, UniProt Q00526); experiment: Radiometric protein kinase assay (33PanQinase), CDK3_CycC; format: biochemical; conditions: for Hill Slope: slope of the IC50 fit
T7 construct: purchased Reaction Biology

[10] = molecular target: T8, CDK2_CycA2 (Homo sapiens, UniProt P24941); experiment: Radiometric protein kinase assay (33PanQinase), CDK2_CycA2; format: biochemical; conditions: for IC50: highest assay concentration 1.00E-05 M, read-out: IC50; for Hill Slope: slope of the IC50 fit
T8 construct: purchased Reaction Biology

[11] = molecular target: CDK11B 357-795_CycK (Homo sapiens, UniProt P21127); experiment: Radiometric protein kinase assay (33PanQinase), CDK11B 357-795_CycK; format: biochemical; conditions: for IC50: highest assay concentration 1.00E-05 M; for Hill Slope: slope of the IC50 fit
[12] = molecular target: T9, CDK6_CycD3 (Homo sapiens, UniProt Q00534); experiment: Radiometric protein kinase assay (33PanQinase), CDK6_CycD3; format: biochemical; conditions: for Hill Slope: slope of the IC50 fit
T9 construct: purchased Reaction Biology

[13] = molecular target: T10, CDK4_CycD2 (Homo sapiens, UniProt P11802); experiment: Radiometric protein kinase assay (33PanQinase), CDK4_CycD2; format: biochemical; conditions: for IC50: highest assay concentration 1.00E-05 M; for Hill Slope: slope of the IC50 fit
T10 construct: purchased Reaction Biology

[14] = molecular target: T11, CDK7_CycH_MAT1 (Homo sapiens, UniProt P50613); experiment: Radiometric protein kinase assay (33PanQinase), CDK7_CycH_MAT1; format: biochemical; conditions: for IC50: highest assay concentration 1.00E-05 M; for Hill Slope: slope of the IC50 fit
T11 construct: purchased Reaction Biology

[15] = molecular target: T12, CDK4_CycD3 (Homo sapiens, UniProt P11802); experiment: Radiometric protein kinase assay (33PanQinase), CDK4_CycD3; format: biochemical; conditions: for IC50: highest assay concentration 1.00E-05 M; for Hill Slope: slope of the IC50 fit
T12 construct: purchased Reaction Biology

[16] = system: CDK8; design: method as in numbers not given; conditions: reporter displacement assay; previously characterized compounds, no method in this paper; ref numbers not given; read-out: IC50 for in vitro CDK8 binding; cited from earlier work
[17] = molecular target: T13, CDK5_p25NCK (Homo sapiens, UniProt Q00535); experiment: Radiometric protein kinase assay (33PanQinase), CDK5_p25NCK; format: biochemical; conditions: for Hill Slope: slope of the IC50 fit
T13 construct: purchased Reaction Biology

[18] = molecular target: T14, CDK15_CycA2 (Homo sapiens, UniProt Q96Q40); experiment: Radiometric protein kinase assay (33PanQinase), CDK15_CycA2; format: biochemical; conditions: for IC50: highest assay concentration 1.00E-05 M; for Hill Slope: slope of the IC50 fit
T14 construct: purchased Reaction Biology

[19] = molecular target: T15, CDK2_CycD1 (Homo sapiens, UniProt P24941); experiment: Radiometric protein kinase assay (33PanQinase), CDK2_CycD1; format: biochemical; conditions: for Hill Slope: slope of the IC50 fit
T15 construct: purchased Reaction Biology

[20] = molecular target: CDK14_CycY (Homo sapiens, UniProt O94921); experiment: Radiometric protein kinase assay (33PanQinase), CDK14_CycY; format: biochemical; conditions: for IC50: highest assay concentration 1.00E-05 M; for Hill Slope: slope of the IC50 fit
[21] = molecular target: T16, CDK12_CycK (Homo sapiens, UniProt Q9NYV4); experiment: Radiometric protein kinase assay (33PanQinase), CDK12_CycK; format: biochemical; conditions: for Hill Slope: slope of the IC50 fit
T16 construct: purchased Reaction Biology

[22] = molecular target: T17, CDK9_CycT1 (Homo sapiens, UniProt P50750); experiment: Radiometric protein kinase assay (33PanQinase), CDK9_CycT1; format: biochemical; conditions: for IC50: highest assay concentration 1.00E-05 M; for Hill Slope: slope of the IC50 fit
T17 construct: purchased Reaction Biology

[23] = molecular target: T18, CDK4_CycD1 (Homo sapiens, UniProt P11802); experiment: Radiometric protein kinase assay (33PanQinase), CDK4_CycD1; format: biochemical; conditions: for IC50: highest assay concentration 1.00E-05 M; for Hill Slope: slope of the IC50 fit
T18 construct: purchased Reaction Biology

[24] = molecular target: T19, CDK13_CycK (Homo sapiens, UniProt Q14004); experiment: Radiometric protein kinase assay (33PanQinase), CDK13_CycK; format: biochemical; conditions: slope of the IC50 fit
T19 construct: purchased Reaction Biology

[25] = molecular target: T20, CDK6_CycD2 (Homo sapiens, UniProt Q00534); experiment: Radiometric protein kinase assay (33PanQinase), CDK6_CycD2; format: biochemical; conditions: for IC50: highest assay concentration 1.00E-05 M; for Hill Slope: slope of the IC50 fit
T20 construct: purchased Reaction Biology

[26] = molecular target: T21, CDK1_CycB1 (Homo sapiens, UniProt P06493); experiment: Radiometric protein kinase assay (33PanQinase), CDK1_CycB1; format: biochemical; conditions: for IC50: highest assay concentration 1.00E-05 M; for Hill Slope: slope of the IC50 fit
T21 construct: purchased Reaction Biology

[27] = molecular target: T22, CDK6_CycD1 (Homo sapiens, UniProt Q00534); experiment: Radiometric protein kinase assay (33PanQinase), CDK6_CycD1; format: biochemical; conditions: for Hill Slope: slope of the IC50 fit
T22 construct: purchased Reaction Biology

[28] = molecular target: CDK10_CycQ (Homo sapiens, UniProt Q15131); experiment: Radiometric protein kinase assay (33PanQinase), CDK10_CycQ; format: biochemical; conditions: for IC50: highest assay concentration 1.00E-05 M; for Hill Slope: slope of the IC50 fit
[29] = molecular target: T23, CDK3_CycE1 (Homo sapiens, UniProt Q00526); experiment: Radiometric protein kinase assay (33PanQinase), CDK3_CycE1; format: biochemical; conditions: slope of the IC50 fit
T23 construct: purchased Reaction Biology

[30] = molecular target: T24, CDK16_CycY (Homo sapiens, UniProt Q00536); experiment: Radiometric protein kinase assay (33PanQinase), CDK16_CycY; format: biochemical; conditions: for IC50: highest assay concentration 1.00E-05 M; for Hill Slope: slope of the IC50 fit
T24 construct: purchased Reaction Biology

[31] = molecular target: CDK17_p35NCK (Homo sapiens, UniProt Q00537); experiment: Radiometric protein kinase assay (33PanQinase), CDK17_p35NCK; format: biochemical; conditions: for IC50: highest assay concentration 1.00E-05 M; for Hill Slope: slope of the IC50 fit
[32] = molecular target: T25, CDK19_CycC (Homo sapiens, UniProt Q9BWU1); experiment: Radiometric protein kinase assay (33PanQinase), CDK19_CycC; format: biochemical; conditions: for Hill Slope: slope of the IC50 fit
T25 construct: purchased Reaction Biology

[33] = molecular target: CDK20_CycT1 (Homo sapiens, UniProt Q8IZL9); experiment: Radiometric protein kinase assay (33PanQinase), CDK20_CycT1; format: biochemical; conditions: for IC50: highest assay concentration 1.00E-05 M; for Hill Slope: slope of the IC50 fit
[34] = highest assay concentration 1.00E-05 M

T10 sequence (P11802 whole entry): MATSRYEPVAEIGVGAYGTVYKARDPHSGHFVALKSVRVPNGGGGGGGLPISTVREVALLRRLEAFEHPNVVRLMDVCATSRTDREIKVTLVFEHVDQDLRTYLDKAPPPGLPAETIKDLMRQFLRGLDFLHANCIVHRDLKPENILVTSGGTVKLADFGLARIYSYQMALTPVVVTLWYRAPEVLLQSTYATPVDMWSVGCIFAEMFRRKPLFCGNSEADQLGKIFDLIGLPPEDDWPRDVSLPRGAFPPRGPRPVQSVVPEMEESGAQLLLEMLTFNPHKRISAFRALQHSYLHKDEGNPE
T10 sequence (P30279 whole entry partner): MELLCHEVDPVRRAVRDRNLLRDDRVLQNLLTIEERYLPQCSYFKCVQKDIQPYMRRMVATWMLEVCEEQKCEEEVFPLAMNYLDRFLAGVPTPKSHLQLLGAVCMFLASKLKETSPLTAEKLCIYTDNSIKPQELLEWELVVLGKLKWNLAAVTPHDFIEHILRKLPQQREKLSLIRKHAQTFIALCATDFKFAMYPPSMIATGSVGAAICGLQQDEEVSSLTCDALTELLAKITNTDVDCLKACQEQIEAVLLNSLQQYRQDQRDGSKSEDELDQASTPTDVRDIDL
T12 sequence (P11802 whole entry): as the sequence (P11802 whole entry) above
T12 sequence (P30281 whole entry partner): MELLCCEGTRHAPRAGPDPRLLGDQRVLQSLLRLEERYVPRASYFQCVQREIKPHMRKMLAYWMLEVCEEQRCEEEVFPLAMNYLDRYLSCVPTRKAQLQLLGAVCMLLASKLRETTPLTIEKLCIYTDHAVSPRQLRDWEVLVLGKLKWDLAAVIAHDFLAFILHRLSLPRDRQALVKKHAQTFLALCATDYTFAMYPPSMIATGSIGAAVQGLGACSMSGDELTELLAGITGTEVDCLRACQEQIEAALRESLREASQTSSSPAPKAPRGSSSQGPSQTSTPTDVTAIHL
T14 sequence (Q96Q40 whole entry): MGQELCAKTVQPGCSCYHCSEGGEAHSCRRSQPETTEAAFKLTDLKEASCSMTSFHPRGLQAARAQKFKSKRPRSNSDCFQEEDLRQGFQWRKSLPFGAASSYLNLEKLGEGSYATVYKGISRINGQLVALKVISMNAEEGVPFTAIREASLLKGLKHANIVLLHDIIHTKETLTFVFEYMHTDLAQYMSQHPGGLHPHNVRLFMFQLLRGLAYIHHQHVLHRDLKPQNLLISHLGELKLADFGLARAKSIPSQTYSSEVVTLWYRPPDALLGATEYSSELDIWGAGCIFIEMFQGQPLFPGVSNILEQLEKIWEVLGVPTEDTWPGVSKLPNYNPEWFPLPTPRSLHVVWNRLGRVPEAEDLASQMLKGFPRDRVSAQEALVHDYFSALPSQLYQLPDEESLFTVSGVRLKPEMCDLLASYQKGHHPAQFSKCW
Sequence of CDK20_CycT1 (Q8IZL9 whole entry): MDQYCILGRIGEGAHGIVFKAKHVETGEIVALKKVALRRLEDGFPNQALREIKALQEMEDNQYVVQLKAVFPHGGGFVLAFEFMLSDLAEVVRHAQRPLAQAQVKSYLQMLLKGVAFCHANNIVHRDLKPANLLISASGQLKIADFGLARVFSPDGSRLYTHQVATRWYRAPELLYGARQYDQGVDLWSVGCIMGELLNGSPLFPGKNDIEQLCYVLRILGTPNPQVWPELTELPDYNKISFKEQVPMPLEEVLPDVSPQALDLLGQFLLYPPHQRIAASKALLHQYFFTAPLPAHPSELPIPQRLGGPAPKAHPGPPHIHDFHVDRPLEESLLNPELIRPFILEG
Sequence of CDK20_CycH (Q8IZL9 whole entry): as above
T13 sequence (Q00535 whole entry): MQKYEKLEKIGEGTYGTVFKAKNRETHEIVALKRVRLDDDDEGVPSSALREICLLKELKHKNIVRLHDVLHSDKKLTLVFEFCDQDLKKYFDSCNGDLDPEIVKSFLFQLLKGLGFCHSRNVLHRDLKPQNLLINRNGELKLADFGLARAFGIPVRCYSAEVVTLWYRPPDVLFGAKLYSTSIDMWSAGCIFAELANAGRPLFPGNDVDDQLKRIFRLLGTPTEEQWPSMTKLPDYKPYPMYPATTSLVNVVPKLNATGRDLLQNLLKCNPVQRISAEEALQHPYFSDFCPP
T13 sequence (Q15078 99-307 partner limits assumed): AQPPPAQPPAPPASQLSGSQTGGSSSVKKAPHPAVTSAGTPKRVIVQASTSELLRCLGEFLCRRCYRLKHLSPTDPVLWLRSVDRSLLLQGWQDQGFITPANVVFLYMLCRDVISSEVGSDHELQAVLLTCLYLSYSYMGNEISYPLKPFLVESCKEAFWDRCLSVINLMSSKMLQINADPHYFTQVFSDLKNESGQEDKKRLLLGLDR
T5 sequence (Q00535 whole entry): as the sequence (Q00535 whole entry) above
T5 sequence (Q15078 whole entry partner): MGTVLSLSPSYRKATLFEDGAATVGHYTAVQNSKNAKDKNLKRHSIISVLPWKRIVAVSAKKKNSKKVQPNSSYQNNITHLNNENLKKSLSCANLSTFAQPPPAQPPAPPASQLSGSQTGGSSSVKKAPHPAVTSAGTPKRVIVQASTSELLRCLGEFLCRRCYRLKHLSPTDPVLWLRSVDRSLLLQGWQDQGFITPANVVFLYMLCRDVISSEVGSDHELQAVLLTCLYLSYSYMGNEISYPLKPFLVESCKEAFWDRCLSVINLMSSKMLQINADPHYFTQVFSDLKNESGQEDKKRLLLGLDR
Sequence of CDK18_CycY (Q07002 whole entry): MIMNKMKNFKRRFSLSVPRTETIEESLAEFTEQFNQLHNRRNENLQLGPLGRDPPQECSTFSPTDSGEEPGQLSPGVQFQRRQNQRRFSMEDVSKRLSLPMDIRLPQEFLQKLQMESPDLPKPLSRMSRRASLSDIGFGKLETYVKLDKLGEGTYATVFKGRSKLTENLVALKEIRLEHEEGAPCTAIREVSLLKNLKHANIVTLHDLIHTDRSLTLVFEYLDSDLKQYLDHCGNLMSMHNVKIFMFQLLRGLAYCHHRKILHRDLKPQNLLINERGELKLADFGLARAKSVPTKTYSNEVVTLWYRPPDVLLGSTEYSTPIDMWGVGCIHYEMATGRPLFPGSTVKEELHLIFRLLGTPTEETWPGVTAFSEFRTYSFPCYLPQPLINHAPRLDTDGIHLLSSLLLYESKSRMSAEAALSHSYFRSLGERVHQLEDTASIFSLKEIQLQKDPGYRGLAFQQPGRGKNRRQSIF
Sequence of CDK18_CycY (Q8ND76 whole entry partner): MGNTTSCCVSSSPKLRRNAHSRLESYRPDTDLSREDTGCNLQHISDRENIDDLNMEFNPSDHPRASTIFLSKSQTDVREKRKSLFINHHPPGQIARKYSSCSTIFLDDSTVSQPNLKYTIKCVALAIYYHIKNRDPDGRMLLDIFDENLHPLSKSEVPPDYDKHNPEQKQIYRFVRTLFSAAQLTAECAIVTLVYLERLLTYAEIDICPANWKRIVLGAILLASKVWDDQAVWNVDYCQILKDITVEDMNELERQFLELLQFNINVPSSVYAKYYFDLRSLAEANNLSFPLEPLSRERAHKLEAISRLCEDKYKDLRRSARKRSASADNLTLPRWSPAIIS
T1 sequence (P49336 whole entry): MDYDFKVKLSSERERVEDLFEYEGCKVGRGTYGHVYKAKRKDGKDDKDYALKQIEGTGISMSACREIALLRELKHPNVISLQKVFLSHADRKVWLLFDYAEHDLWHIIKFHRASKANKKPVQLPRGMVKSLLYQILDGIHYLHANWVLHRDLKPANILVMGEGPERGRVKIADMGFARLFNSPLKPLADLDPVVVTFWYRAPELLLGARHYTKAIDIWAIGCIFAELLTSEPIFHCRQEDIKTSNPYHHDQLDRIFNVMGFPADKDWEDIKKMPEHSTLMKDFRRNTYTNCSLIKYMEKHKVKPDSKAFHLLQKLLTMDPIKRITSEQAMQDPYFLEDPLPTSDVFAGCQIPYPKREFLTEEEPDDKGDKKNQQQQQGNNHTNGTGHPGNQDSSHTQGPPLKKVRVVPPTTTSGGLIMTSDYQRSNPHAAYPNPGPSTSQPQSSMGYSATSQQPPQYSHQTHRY
T1 sequence (P24863 whole entry partner): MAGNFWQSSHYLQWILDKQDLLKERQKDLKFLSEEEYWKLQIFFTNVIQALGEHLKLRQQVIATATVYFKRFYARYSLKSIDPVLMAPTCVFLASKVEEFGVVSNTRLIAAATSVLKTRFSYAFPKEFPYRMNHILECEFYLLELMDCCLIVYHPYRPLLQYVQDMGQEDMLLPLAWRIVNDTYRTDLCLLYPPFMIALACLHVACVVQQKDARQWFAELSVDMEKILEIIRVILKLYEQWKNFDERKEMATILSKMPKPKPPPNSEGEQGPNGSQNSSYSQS
Sequence of CDK11B 357-795_CycK (P21127 357-795): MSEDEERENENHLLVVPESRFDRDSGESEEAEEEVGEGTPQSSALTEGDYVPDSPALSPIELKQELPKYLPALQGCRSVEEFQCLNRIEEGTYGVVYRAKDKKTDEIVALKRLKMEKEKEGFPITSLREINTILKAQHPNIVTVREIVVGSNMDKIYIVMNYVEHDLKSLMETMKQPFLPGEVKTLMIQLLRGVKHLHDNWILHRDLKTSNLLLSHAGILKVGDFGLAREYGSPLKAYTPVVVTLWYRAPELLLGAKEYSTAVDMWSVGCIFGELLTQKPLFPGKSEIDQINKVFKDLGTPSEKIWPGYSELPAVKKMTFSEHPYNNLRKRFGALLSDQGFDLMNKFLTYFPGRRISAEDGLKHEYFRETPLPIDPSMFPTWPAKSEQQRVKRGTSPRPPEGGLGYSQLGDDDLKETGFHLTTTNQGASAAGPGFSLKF

## Cn1cc(-c2ccc(-c3cncc(Cl)c3N3CCC4(CCNC4=O)CC3)cc2)cn1 [CCT251545]
[1]
  IC50: 84.1 nM
  Hill Slope: -0.56
[2]
  IC50: > 10 µM
  Hill Slope: -0.5
[3]
  IC50: > 10 µM
  Hill Slope: -0.78
[4]
  IC50: > 10 µM
  Hill Slope: -0.5
[5]
  IC50: > 10 µM
  Hill Slope: -0.72
[6]
  IC50: > 10 µM
  Hill Slope: -1.62
[7]
  IC50: 3.81 µM
  Hill Slope: -0.78
[8]
  IC50: > 10 µM
  Hill Slope: -0.44
[9]
  IC50: > 10 µM
  Hill Slope: -0.47
[10]
  IC50: > 10 µM
  Hill Slope: -0.46
[11]
  IC50: > 10 µM
  Hill Slope: -8.69
[12]
  Hill Slope: -0.2
[13]
  IC50: > 10 µM
  Hill Slope: -0.3
[14]
  IC50: > 10 µM
  Hill Slope: -0.59
[15]
  IC50: > 10 µM
  Hill Slope: -0.27
[16]
  IC50: 5 nM
[17]; [34]
  IC50: > 10 µM
[17]
  Hill Slope: -0.59
[18]
  IC50: > 10 µM
  Hill Slope: -0.34
[19]; highest assay concentration 1.00E-05 M, read-out: IC50
  IC50: > 10 µM
[19]
  Hill Slope: -0.29
[20]
  IC50: > 10 µM
  Hill Slope: -0.82
[21]
  Hill Slope: -0.07
[22]
  IC50: 6.07 µM
  Hill Slope: -0.94
[23]
  IC50: > 10 µM
  Hill Slope: -0.31
[24]
  Hill Slope: 0.15
[25]
  IC50: > 10 µM
  Hill Slope: -0.64
[26]
  IC50: > 10 µM
  Hill Slope: -0.74
[27]; [34]
  IC50: > 10 µM
[27]
  Hill Slope: -1.25
[28]
  IC50: > 10 µM
  Hill Slope: -0.51
[29]
  Hill Slope: -0.16
[30]
  IC50: > 10 µM
  Hill Slope: -1.1
[31]
  IC50: > 10 µM
  Hill Slope: -0.17
[32]
  IC50: 277 nM
  Hill Slope: -0.53
[33]
  IC50: > 10 µM
  Hill Slope: -0.39

## Cn1ncc2cc(-c3cnc(N)c(Cl)c3N3CCC4(CCNC4=O)CC3)ccc21 [CCT251921]
[1]
  Hill Slope: -0.55
[2]
  IC50: > 10 µM
  Hill Slope: -0.84
[3]
  IC50: > 10 µM
  Hill Slope: -0.53
[4]
  IC50: > 10 µM
  Hill Slope: -0.94
[5]
  IC50: > 10 µM
  Hill Slope: -0.77
[6]
  IC50: > 10 µM
  Hill Slope: -0.4
[7]
  IC50: > 10 µM
  Hill Slope: -0.77
[8]
  IC50: > 10 µM
  Hill Slope: -0.38
[9]
  IC50: > 10 µM
  Hill Slope: -0.55
[10]
  IC50: > 10 µM
  Hill Slope: -0.89
[11]
  IC50: > 10 µM
  Hill Slope: -0.41
[12]; [34]
  IC50: > 10 µM
[12]
  Hill Slope: -0.33
[13]
  IC50: > 10 µM
  Hill Slope: -0.33
[14]
  IC50: > 10 µM
  Hill Slope: -0.33
[15]
  IC50: > 10 µM
  Hill Slope: -0.37
[16]
  IC50: 4.9 nM
[17]
  Hill Slope: -0.17
[18]
  IC50: > 10 µM
  Hill Slope: -0.85
[19]
  Hill Slope: 0
[20]
  IC50: > 10 µM
  Hill Slope: -0.73
[21]; [34]
  IC50: > 10 µM
[21]
  Hill Slope: -0.32
[22]
  IC50: > 10 µM
  Hill Slope: -1.01
[23]
  IC50: > 10 µM
  Hill Slope: -0.37
[24]
  Hill Slope: 0.03
[25]
  IC50: > 10 µM
  Hill Slope: -0.59
[26]
  IC50: > 10 µM
  Hill Slope: -0.32
[27]
  Hill Slope: -0.13
[28]
  IC50: > 10 µM
  Hill Slope: -0.72
[29]
  Hill Slope: -0.12
[30]
  IC50: > 10 µM
  Hill Slope: -0.3
[31]
  IC50: > 10 µM
  Hill Slope: -0.39
[32]
  IC50: 409 nM
  Hill Slope: -0.45
[33]
  IC50: > 10 µM
  Hill Slope: -0.33
